These results are taken from ChEMBL document CHEMBL3352650, “Investigation of podophyllotoxin esters as potential anticancer agents: synthesis, biological studies and tubulin inhibition properties” (Eur J Med Chem, 2015).

Experiment [1] relates to DU-145. In words: Cytotoxicity against human DU145 cells after 48 hrs by MTT assay. Format: functional, cell-based. To be noted: DU-145, 48 h.
Experiment [2] concerns A549. In words: Cytotoxicity against human A549 cells after 48 hrs by MTT assay. Format: functional, cell-based. To be noted: A549, 48 h.
Experiment [3] relates to HeLa. The experiment can be described thus: Cytotoxicity against human HeLa cells after 48 hrs by MTT assay. Format: functional, cell-based.
Experiment [4] deals with HepG2. The experiment can be described thus: Cytotoxicity against human HepG2 cells after 48 hrs by MTT assay. To be noted: HepG2, 48 h. Format: functional, cell-based.
Experiment [5] has as its system MCF7. In words: Cytotoxicity against human MCF7 cells after 48 hrs by MTT assay. Format: functional, cell-based. Particulars: MCF7, 48 h.
The target in experiment [6] is T1, Tubulin (Homo sapiens) (UniProt P68371+Q9H4B7+P0DPH7+P68366+Q13509+Q71U36+P04350+Q3ZCM7+P07437+P68363+Q9BQE3+Q6PEY2+Q13885+Q9BVA1+Q9BUF5). In words: Inhibition of tubulin polymerization (unknown origin) at 5 uM measured every min for 1 hr by fluorescence-based assay. Format: protein-complex assay. Further details: scale not given: the % may be the effect or the level left.

The test system of experiment [7] is DU-145. The experiment can be described thus: Cell cycle arrest in human DU145 cells assessed as accumulation at S phase at 2 uM after 48 hrs by propidium iodide staining-based flow cytometric analysis (reference value: 5.88%). Format: functional.
The subject of experiment [8] is DU-145. The experiment can be described thus: Cytotoxicity against human DU145 cells assessed as inhibition of colony formation at 5 uM after 3 days by microscopy. Format: functional, cell-based.
Experiment [9] concerns DU-145. The experiment can be described thus: Cell cycle arrest in human DU145 cells assessed as accumulation at G2/M phase at 2 uM after 48 hrs by propidium iodide staining-based flow cytometric analysis (reference value: 15%). Format: functional.
For experiment [10], the system named is DU-145. In words: Cell cycle arrest in human DU145 cells assessed as accumulation at sub-G1 phase at 2 uM after 48 hrs by propidium iodide staining-based flow cytometric analysis (reference value: 0.17%). Format: functional.
The test system of experiment [11] is DU-145. The experiment can be described thus: Cell cycle arrest in human DU145 cells assessed as accumulation at G0/G1 phase at 2 uM after 48 hrs by propidium iodide staining-based flow cytometric analysis (reference value: 78.96%). Format: functional.
Experiment [12] addresses T1, Tubulin (Homo sapiens). In words: Inhibition of tubulin polymerization in human DU145 cells assessed as reduction of Akt phosphorylation at Ser473 at 2 to 5 uM after 48 hrs by Western blotting analysis. Format: cell-based. Particulars: DU-145.
Experiment [13] deals with DU-145. In words: Cytotoxicity against human DU145 cells assessed as inhibition of colony formation at 2.5 uM after 3 days by microscopy. Format: functional, cell-based.
The test system of experiment [14] is DU-145. The experiment can be described thus: Induction of apoptosis in human DU145 cells assessed as nuclear fragmentation at 2 uM after 24 hrs by Hoechst 33342 staining based confocal microscopy. Format: functional, cell-based.

pIC50: −log10 of the molar value. Active and inactive are the calls of the source. The calls are words filed in the database; no cut-off is given here.

Turning to `COc1ccc(C(=O)O[C@H]2c3cc4c(cc3[C@@H](c3cc(OC)c(OC)c(OC)c3)[C@H]3C(=O)OC[C@@H]32)OCO4)c([N+](=O)[O-])c1`, the negative-log IC50 (pIC50) is 4.84 in experiment [1]; 4.59 in experiment [2]; 4.75 in experiment [3]; 4.58 in experiment [4]; 4.82 in [5].

On to `COc1ccc(/C=C\c2cc(OC)c(OC)c(OC)c2)cc1O`, for which the Activity in [6] is 69.4%.

For the compound `COc1cc([C@@H]2c3cc4c(cc3[C@H](OC(=O)c3ccc([N+](=O)[O-])cc3)[C@H]3COC(=O)[C@H]23)OCO4)cc(OC)c1OC`, the Activity is 4.24% in experiment [7]; 13.23% in [9]; 40.72% in [10]; 64% in [6]; 41.81% in experiment [11]; “Dose-dependent effect” in [12]. Besides, the negative-log IC50 (pIC50) in experiment [1] is 5.96; in experiment [2] it was 6.13; in [3] it was 5.69; in experiment [4], 5.05; in [5], 5.81. Besides, in experiment [8], the inhibition entry is “Active”.

As for `COc1ccc(/C(=C\c2ccc(OC)c(OC)c2)C(=O)O[C@H]2c3cc4c(cc3[C@@H](c3cc(OC)c(OC)c(OC)c3)[C@H]3C(=O)OC[C@@H]32)OCO4)cc1`, the negative logarithm of the IC50 (pIC50) in experiment [1] is 5.08; in [2], 4.74; in experiment [3], 4.81; in experiment [4], 4.29; in experiment [5] it was 4.76.

For the compound `COc1cc([C@@H]2c3cc4c(cc3[C@H](OC(=O)c3cc([N+](=O)[O-])ccc3N)[C@H]3COC(=O)[C@H]23)OCO4)cc(OC)c1OC`, the pIC50 in experiment [1] is 4.95; in [2], 4.65; in [3], 4.86; in experiment [4] it was 4.56; in [5], 4.71.

With `CC#CC(=O)O[C@H]1c2cc3c(cc2[C@@H](c2cc(OC)c(OC)c(OC)c2)[C@H]2C(=O)OC[C@@H]21)OCO3`, the inhibition entry in experiment [13] and in [8] was “Active” in each case. Further, the negative-log IC50 (pIC50) in experiment [1] was 5.77; in [2] it was 5.99; in [3], 6.00; in [4], 5.83; in experiment [5], 5.87. The compound also came in with an Activity in [6] of 62.1%. In [14], the outcome was Active.

In the case of `COc1cccc2c1C(=O)c1c(O)c3c(c(O)c1C2=O)C[C@@](O)(C(=O)CO)C[C@@H]3O[C@H]1C[C@H](N)[C@H](O)[C@H](C)O1` [DOXORUBICIN], the figures for the pIC50 in experiment [1], in experiment [3] and in experiment [4] were 5.39, 6.05 and 5.42, respectively.

Turning to `COc1ccc(/C(=C\c2cc(OC)c(OC)c(OC)c2)C(=O)O[C@H]2c3cc4c(cc3[C@@H](c3cc(OC)c(OC)c(OC)c3)[C@H]3C(=O)OC[C@@H]32)OCO4)cc1OC`, the pIC50 in experiment [1] was 4.42; in experiment [2], 4.98; in experiment [3], 4.93; in experiment [4], 4.63; in [5], 4.64.

Take `COc1cc([C@@H]2c3cc4c(cc3[C@H](O)[C@H]3COC(=O)[C@H]23)OCO4)cc(OC)c1OC` [PODOFILOX]: the negative-log IC50 (pIC50) in experiment [1] was less than 4.00. The compound also registered an Activity in experiment [6] of 66.6%.

Turning to `COc1ccc(/C(=C\c2ccc(OCc3ccccc3)c(OC)c2)C(=O)O[C@H]2c3cc4c(cc3[C@@H](c3cc(OC)c(OC)c(OC)c3)[C@H]3C(=O)OC[C@@H]32)OCO4)cc1OC`, the negative-log IC50 (pIC50) in [1] is 4.87; in experiment [2], 4.60; in experiment [3], 4.80; in experiment [4], 4.55; in [5] it was 4.69.

Regarding `COc1ccc(/C(=C\c2ccc(OC)c(OCc3ccccc3)c2)C(=O)O[C@H]2c3cc4c(cc3[C@@H](c3cc(OC)c(OC)c(OC)c3)[C@H]3C(=O)OC[C@@H]32)OCO4)cc1OC`, the negative-log IC50 (pIC50) in experiment [1] was 4.48; in experiment [2] it was 4.76; in experiment [3], 4.84; in [4], 4.64; in experiment [5], 4.75.

As to `COc1cc([C@@H]2c3cc4c(cc3[C@H](OC(=O)c3ccccc3Cl)[C@H]3COC(=O)[C@H]23)OCO4)cc(OC)c1OC`, the pIC50 in experiment [1] is 4.95; in experiment [2], 4.46; in [3] it was 4.77; in experiment [4], 4.61; in experiment [5], 4.71.

Regarding `COc1ccc(/C(=C\c2cc(OC)c(OC)c(OC)c2)C(=O)O[C@H]2c3cc4c(cc3[C@@H](c3cc(OC)c(OC)c(OC)c3)[C@H]3C(=O)OC[C@@H]32)OCO4)cc1`, the pIC50 in experiment [1] was 4.42; in [2] it was 4.89; in [3] it was 4.80; in experiment [4], 4.63; in experiment [5], 4.63.

`COc1ccc(/C(=C\c2ccc(OC(C)=O)c(OC)c2)C(=O)O[C@H]2c3cc4c(cc3[C@@H](c3cc(OC)c(OC)c(OC)c3)[C@H]3C(=O)OC[C@@H]32)OCO4)cc1OC`: the Activity in [7] is 5.69%; in experiment [9] it was 12.63%; in experiment [10] it was 38.88%; in experiment [6], 51.2%; in experiment [11], 42.8%; in experiment [12], “Dose-dependent effect”. Besides, the pIC50 is 5.97 in experiment [1]; 6.04 in experiment [2]; 5.64 in [3]; 4.96 in [4]; 5.74 in experiment [5]. For the same compound, the inhibition entry in experiment [8] was “Active”.

As to `COc1cc([C@@H]2c3cc4c(cc3[C@H](OC(=O)c3cccc(OC)c3OC)[C@H]3COC(=O)[C@H]23)OCO4)cc(OC)c1OC`, the negative-log IC50 (pIC50) is 4.30 in experiment [1]; 4.61 in experiment [2]; 4.88 in [3]; 4.31 in experiment [4]; 4.68 in [5].

Consider `COc1cc([C@@H]2c3cc4c(cc3[C@H](OC(=O)C#Cc3ccccc3)[C@H]3COC(=O)[C@H]23)OCO4)cc(OC)c1OC`, for which the inhibition result in [13] and in experiment [8] was “Active” throughout. Further, the pIC50 in experiment [1] was 6.10; in [2], 5.74; in experiment [3], 5.95; in experiment [4] it was 5.97; in experiment [5], 5.91. The Activity in [6] was 53.8%. Further, the outcome in experiment [14] was Active.

As for `COc1cccc(/C(=C\c2cc(OC)c(OC)c(OC)c2)C(=O)O[C@H]2c3cc4c(cc3[C@@H](c3cc(OC)c(OC)c(OC)c3)[C@H]3C(=O)OC[C@@H]32)OCO4)c1`, the negative logarithm of the IC50 (pIC50) in experiment [1] was 4.74; in experiment [2], 4.60; in [3], 4.85; in experiment [4], 4.56; in experiment [5] it was 4.70.

Turning to `COc1ccc(/C=C(/C(=O)O[C@H]2c3cc4c(cc3[C@@H](c3cc(OC)c(OC)c(OC)c3)[C@H]3C(=O)OC[C@@H]32)OCO4)c2ccc(OC)c(OC)c2)cc1OC`, the Activity in experiment [7] is 1.68%; in experiment [9], 2.94%; in experiment [10] it was 73%; in experiment [6], 46.8%; in [11], 22.39%; in experiment [12], “Dose-dependent effect”. Besides, the negative-log IC50 (pIC50) in [1] was 5.85; in experiment [2], 6.15; in experiment [3] it was 5.69; in [4], 5.29; in [5] it was 5.76. In experiment [8], the inhibition result is “Active”.
